According to US7205295B2, “Benzoxazin-3-ones and derivatives thereof as therapeutic agents” (Warner-Lambert Company LLC, priority 2002, dated 2007):

Molecular target: T1, PI3Kγ (p101/p110γ protein) (Homo sapiens, UniProt P48736)
T1 construct: HA; made in house; host or cells: Spodoptera frugiperda (Sf9) cells, baculovirus co-infection
Assay: PI3Kγ In Vitro Kinase Assay
Assay type: biochemical
Conditions: purified recombinant p101/p110γ with G protein β1/γ2 subunits; 20 μM ATP, 25 μM PIP2; 20 minutes at room temperature
Procedure, shortened: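 Reactions ran 20 min at room temperature, pairing lipid micelles (25 μM PIP2, 300 μM PE, 0.02% Na-cholate, 10 mM MgCl2) with 20 μM ATP including [γ-32P]ATP. The enzyme was recombinant p101/p110γ (2.7 nM) with G protein β1/γ2 (57.7 nM). [32P]PIP3 product was stopped with H3PO4, filtered and scintillation counted.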

T1 sequence (P48736 whole entry, species assumed): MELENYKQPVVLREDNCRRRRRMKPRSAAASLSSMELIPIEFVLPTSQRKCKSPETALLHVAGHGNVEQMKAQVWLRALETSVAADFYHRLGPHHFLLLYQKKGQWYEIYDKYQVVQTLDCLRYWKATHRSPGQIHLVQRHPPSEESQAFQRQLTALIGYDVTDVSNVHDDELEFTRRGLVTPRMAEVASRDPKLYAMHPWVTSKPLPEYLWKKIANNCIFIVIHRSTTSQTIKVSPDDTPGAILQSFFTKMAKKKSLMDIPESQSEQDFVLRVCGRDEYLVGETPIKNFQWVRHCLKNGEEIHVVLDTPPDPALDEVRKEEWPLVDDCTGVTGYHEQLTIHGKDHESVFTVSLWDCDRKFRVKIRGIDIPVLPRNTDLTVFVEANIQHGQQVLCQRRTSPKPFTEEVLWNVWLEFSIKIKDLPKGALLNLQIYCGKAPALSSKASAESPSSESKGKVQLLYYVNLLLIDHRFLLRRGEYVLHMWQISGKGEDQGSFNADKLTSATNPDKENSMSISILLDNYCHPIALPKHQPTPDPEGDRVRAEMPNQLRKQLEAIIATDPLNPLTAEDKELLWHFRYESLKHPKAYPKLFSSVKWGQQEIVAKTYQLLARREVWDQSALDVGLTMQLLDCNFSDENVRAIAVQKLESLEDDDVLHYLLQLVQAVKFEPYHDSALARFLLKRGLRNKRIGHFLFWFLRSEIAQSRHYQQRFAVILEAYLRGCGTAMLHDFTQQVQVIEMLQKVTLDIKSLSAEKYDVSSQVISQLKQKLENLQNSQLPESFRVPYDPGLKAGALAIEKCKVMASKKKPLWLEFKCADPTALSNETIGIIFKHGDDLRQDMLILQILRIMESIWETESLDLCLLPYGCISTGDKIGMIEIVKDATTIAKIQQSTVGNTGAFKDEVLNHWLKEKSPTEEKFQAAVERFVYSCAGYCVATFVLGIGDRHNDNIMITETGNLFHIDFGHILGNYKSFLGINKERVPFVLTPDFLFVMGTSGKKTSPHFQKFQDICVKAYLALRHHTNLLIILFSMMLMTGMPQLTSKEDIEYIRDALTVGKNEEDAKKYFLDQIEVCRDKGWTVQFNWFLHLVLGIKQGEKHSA
T1 sequence (Q8WYR1 whole entry partner, species assumed): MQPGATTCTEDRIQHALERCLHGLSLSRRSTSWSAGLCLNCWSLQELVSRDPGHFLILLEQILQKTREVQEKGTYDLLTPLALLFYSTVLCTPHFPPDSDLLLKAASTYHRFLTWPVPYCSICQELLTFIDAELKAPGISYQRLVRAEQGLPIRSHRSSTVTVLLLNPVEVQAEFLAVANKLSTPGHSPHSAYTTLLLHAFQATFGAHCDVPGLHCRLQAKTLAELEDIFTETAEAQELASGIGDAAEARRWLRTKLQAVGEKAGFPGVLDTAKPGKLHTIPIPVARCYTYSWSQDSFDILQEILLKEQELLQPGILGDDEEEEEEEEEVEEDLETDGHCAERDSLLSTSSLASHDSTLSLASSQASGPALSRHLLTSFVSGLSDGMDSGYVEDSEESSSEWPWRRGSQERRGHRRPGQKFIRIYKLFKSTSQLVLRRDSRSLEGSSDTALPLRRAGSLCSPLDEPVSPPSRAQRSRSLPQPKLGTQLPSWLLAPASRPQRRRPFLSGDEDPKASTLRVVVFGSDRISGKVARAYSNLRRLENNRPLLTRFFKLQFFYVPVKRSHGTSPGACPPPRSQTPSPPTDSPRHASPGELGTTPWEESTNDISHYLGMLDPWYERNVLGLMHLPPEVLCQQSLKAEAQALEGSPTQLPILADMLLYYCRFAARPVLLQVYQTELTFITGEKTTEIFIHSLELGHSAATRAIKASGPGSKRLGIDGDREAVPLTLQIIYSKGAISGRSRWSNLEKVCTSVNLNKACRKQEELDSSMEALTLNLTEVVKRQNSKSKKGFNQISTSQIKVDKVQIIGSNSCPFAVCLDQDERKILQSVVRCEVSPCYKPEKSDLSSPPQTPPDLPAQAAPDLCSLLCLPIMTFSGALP

IC50	Compound
6 nM	O=C1NC(=S)SC1=Cc1ccc2c(c1)N(Cc1ccc(Cl)c(Cl)c1)C(=O)CS2 [Example 198, 4-(3,4-Dichloro-benzyl)-6-(4-oxo-2-thioxo-thiazolidin-5-ylidenemethyl)-4H-1,4-benzothiazin-3-one]
9 nM	O=C1NC(=S)OC1=Cc1ccc2c(c1)N(Cc1ccc(Cl)c(Cl)c1)C(=O)CS2 [Example 199, 4-(3,4-Dichlorobenzyl)-6-(4-oxo-2-thioxo-oxazolidin-5-ylidenemethyl)-4H-benzo[1,4]thiazin-3-one]
3640 nM	O=C1COc2ccc(C=C3NC(=S)NC3=O)cc2N1 [Example 200, 6-(5-Oxo-2-thioxo-imidazolidin-4-ylidenemethyl)-4H-benzo[1,4]oxazin-3-one]
70 nM	CC(C)(C)c1cc(CN2C(=O)COc3ccc(C=C4OC(=S)NC4=O)cc32)cc(C(C)(C)C)n1 [Example 201, 4-(2,6-Di-tert-butyl-pyridin-4-ylmethyl)-6-(4-oxo-2-thioxo-oxazolidin-5-ylidenemethyl)-4H-1,4-benzoxazin-3-one]
3 nM	O=C1NC(=O)C(=Cc2ccc3c(c2)N(Cc2ccccc2)C(=O)CO3)S1 [Example 202, 5-(4-Benzyl-3-oxo-3,4-dihydro-2H-1,4-benzoxazin-6-ylmethylene)-thiazolidine-2,4-dione]
175 nM	O=C1COc2ccc(C=C3OC(=O)NC3=O)cc2N1 [Example 203, 5-(3-Oxo-3,4-dihydro-2H-1,4-benzoxazin-6-ylmethylene)-oxazolidine-2,4-dione]
32 nM	COc1cc(CN2C(=O)COc3ccc(C=C4SC(=S)NC4=O)cc32)cc(Cl)n1 [Example 205, 4-(2-Chloro-6-methoxy-pyridin-4-ylmethyl)-6-(4-oxo-2-thioxo-thiazolidin-5-ylidenemethyl)-4H-benzo[1,4]oxazin-3-one]
60 nM	COc1cc(CN2C(=O)COc3ccc(C=C4SC(=S)NC4=O)cc32)cc(OC)n1 [Example 206, 4-(2,6-Dimethoxy-pyridin-4-ylmethyl)-6-(4-oxo-2-thioxo-thiazolidin-5-ylidenemethyl)-4H-benzo[1,4]oxazine-3-one]
45 nM	CC(C)c1cc(CN2C(=O)COc3ccc(C=C4SC(=S)NC4=O)cc32)cc(C(C)C)c1 [Example 210, 4-(3,5-Diisopropyl-benzyl)-6-(4-oxo-2-thioxo-thiazolidin-5-ylidenemethyl)-4H-benzo[1,4]oxazin-3-one]
17 nM	Cc1cc(CN2C(=O)COc3ccc(C=C4SC(=S)NC4=O)cc32)cc(C(C)(C)C)c1 [Example 211, 4-(3-tert-Butyl-5-methyl-benzyl)-6-(4-oxo-2-thioxo-thiazolidin-5-ylidenemethyl)-4H-1,4-benzoxazin-3-one]
22 nM	CC(C)(C)c1cc(CO)cc(CN2C(=O)COc3ccc(C=C4SC(=S)NC4=O)cc32)c1 [Example 212, 4-(3-tert-Butyl-5-hydroxymethyl-benzyl)-6-(4-oxo-2-thioxo-thiazolidin-5-ylidenemethyl)-4H-1,4-benzoxazin-3-one]
2100 nM	CC1CC(C)CN(C(=O)CN2C(=O)COc3ccc(C=C4SC(=S)NC4=O)cc32)C1 (centres unmarked) [Example 213, 4-[2-(3,5-Dimethyl-piperidin-1-yl)-2-oxo-ethyl]-6-(4-oxo-2-thioxo-thiazolidin-5-ylidenemethyl)-4H-1,4-benzoxazin-3-one]
3180 nM	CC(C)(C)OC(=O)N1CCN(C(=O)CN2C(=O)COc3ccc(C=C4SC(=S)NC4=O)cc32)CC1 [Example 214, 4-{2-[3-Oxo-6-(4-oxo-2-thioxo-thiazolidin-5-ylidenemethyl)-2,3-dihydro-1,4-benzoxazin-4-yl]-acetyl}-piperazine-1-carboxylic acid tert-butyl ester]
1080 nM	O=C1NC(=S)SC1=Cc1ccc2c(c1)N(CC(=O)N1CCNCC1)C(=O)CO2 [Example 215, 4-(2-Oxo-2-piperazin-1-yl-ethyl)-6-(4-oxo-2-thioxo-thiazolidin-5-ylidenemethyl)-4H-1,4-benzoxazin-3-one]
